From PubChem BioAssay (NCI) come the findings set out here.

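Step 1: Grow cells in 96-well plates. Step 2: Expose to compound for 48 hours at 5 concentrations. Step 3: Interpolate endpoints linearly; if unreached, use highest concentration. GI50: concentration for 50% inhibition of growth. TGI denotes the concentration required for complete inhibition of growth.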

Among the test systems are COLO 205 colon; M14 melanoma; MOLT-4 leukemia; OVCAR-5 ovarian; SK-OV-3 ovarian; SNB-19 CNS; SW-620 colon; T-47D breast; UACC-62 melanoma; RXF 393 renal.
Experiment in all cases: inhibition of tumour cell growth, NCI panel, 48 h

On to `C=C(C)C1CCC2(C(=O)O)CCC3(C)C(CCC4C5(C)CCC(OC(=O)NCc6ccccc6)C(C)(C)C5CCC43C)C12` (stereo not drawn), for which the GI50 in the experiment on COLO 205 colon is 1.82 µM; in the experiment on M14 melanoma, 5.98 µM; in the experiment with MOLT-4 leukemia, 2.79 µM; with OVCAR-5 ovarian it was 84.3 µM; with SK-OV-3 ovarian, 27.8 µM; in the experiment with SNB-19 CNS, 25.3 µM. For the same molecule, the GI50 is 2.56 µM in the experiment with SW-620 colon, 3.19 µM in the experiment on T-47D breast and 1.9 µM in the experiment with UACC-62 melanoma. Moreover, the TGI is 5.44 µM in the experiment with COLO 205 colon; above 100 µM with M14 melanoma; above 100 µM in the experiment on MOLT-4 leukemia; above 100 µM with OVCAR-5 ovarian; above 100 µM in the experiment with SK-OV-3 ovarian; above 100 µM in the experiment on SNB-19 CNS. In addition, the TGI with SW-620 colon, with T-47D breast and in the experiment with UACC-62 melanoma was above 100 µM throughout.

`CO[C@H]1C=C[C@@]23c4cc5c(cc4CO[C@]2(O)CN(C)[C@H]3C1)OCO5`: the TGI in the experiment on COLO 205 colon, in the experiment on M14 melanoma, in the experiment with MOLT-4 leukemia, with OVCAR-5 ovarian, with SK-OV-3 ovarian and in the experiment with SNB-19 CNS was above 100 µM each time. Besides, the TGI with SW-620 colon, in the experiment on T-47D breast and with UACC-62 melanoma was above 100 µM each time.

For the molecule `O=C1OC(c2ccco2)=N/C1=C\c1cccc([N+](=O)[O-])c1`, the TGI in the experiment with COLO 205 colon, in the experiment with M14 melanoma, in the experiment on MOLT-4 leukemia, in the experiment on OVCAR-5 ovarian, in the experiment with SK-OV-3 ovarian and in the experiment on SNB-19 CNS was above 100 µM in each case. Besides, the TGI in the experiment with SW-620 colon, with T-47D breast and in the experiment with UACC-62 melanoma was above 100 µM each time.

Turning to `COc1cc2c(c(OC)c1OC)C(=O)[C@@H]1c3ccc([N+](=O)[O-])cc3C(=O)N(CCCBr)[C@H]21`, the GI50 in the experiment with COLO 205 colon was 9.86 µM; in the experiment on M14 melanoma it was 12.1 µM; in the experiment on MOLT-4 leukemia, 19.8 µM; with OVCAR-5 ovarian, 31 µM; in the experiment on SK-OV-3 ovarian it was 22.3 µM; in the experiment on SNB-19 CNS, 22 µM. Further, the values for the GI50 in the experiment on SW-620 colon, in the experiment on T-47D breast and in the experiment on UACC-62 melanoma were 20 µM, 7.88 µM and above 100 µM, respectively. Also, the TGI was above 100 µM with COLO 205 colon; 33.5 µM in the experiment on M14 melanoma; above 100 µM in the experiment with MOLT-4 leukemia; 91.9 µM in the experiment with OVCAR-5 ovarian; 74.5 µM in the experiment on SK-OV-3 ovarian; above 100 µM in the experiment on SNB-19 CNS. Moreover, the TGI in the experiment on SW-620 colon, in the experiment on T-47D breast and with UACC-62 melanoma was above 100 µM each time.

For the molecule `COc1ncc(-c2ccc3ncnc(Nc4cccc(Cl)c4)c3c2)cc1NS(=O)(=O)CCN1CCOCC1`, the GI50 was 0.755 µM in the experiment with M14 melanoma, 0.945 µM in the experiment on SNB-19 CNS, 1.25 µM with SW-620 colon and below 0.01 µM in the experiment with T-47D breast. Besides, the TGI was above 100 µM in the experiment on M14 melanoma, above 100 µM with SNB-19 CNS, above 100 µM in the experiment on SW-620 colon and 0.6 µM with T-47D breast.

In the case of `OC/C=C(\I)CCCOCOCc1ccccc1`, the TGI in the experiment with COLO 205 colon was above 100 µM; in the experiment on M14 melanoma it was above 100 µM; in the experiment with MOLT-4 leukemia, 13.1 µM; in the experiment on OVCAR-5 ovarian, above 100 µM; in the experiment with RXF 393 renal it was 72.3 µM; with SK-OV-3 ovarian, above 100 µM. The TGI in the experiment on SNB-19 CNS, in the experiment on SW-620 colon and in the experiment on UACC-62 melanoma was above 100 µM throughout.

As for `N#C/C(=C\c1cc2ccccc2c2ccccc12)c1ccccc1`, the TGI with COLO 205 colon is 10.6 µM; in the experiment with M14 melanoma, 30 µM; in the experiment on MOLT-4 leukemia, 28 µM; in the experiment on OVCAR-5 ovarian, 98.6 µM; with RXF 393 renal, 18.6 µM; in the experiment with SK-OV-3 ovarian it was 39 µM. In addition, the TGI in the experiment on SNB-19 CNS stood at 45.4 µM; in the experiment with SW-620 colon it was 24.9 µM; in the experiment with UACC-62 melanoma it was 28.9 µM.

Turning to `N#Cc1cccc(NC(=O)c2cc(-c3ccc(F)cc3F)ccc2O)c1`, the GI50 with COLO 205 colon is 10.9 µM; in the experiment on M14 melanoma, 1.94 µM; in the experiment with MOLT-4 leukemia it was 2.46 µM; in the experiment on OVCAR-5 ovarian it was 3.2 µM; with RXF 393 renal, 2.69 µM; in the experiment on SNB-19 CNS, 2.63 µM. Further, the GI50 is 3.02 µM in the experiment with SW-620 colon, 1.1 µM with T-47D breast and 0.87 µM in the experiment with UACC-62 melanoma. Moreover, the TGI in the experiment on COLO 205 colon came to 28.2 µM; with M14 melanoma it was 7.84 µM; in the experiment with MOLT-4 leukemia it was 6.65 µM; with OVCAR-5 ovarian it was 25.5 µM; with RXF 393 renal, 7.63 µM; with SNB-19 CNS, 18.4 µM. For the same molecule, the TGI with SW-620 colon was found to be 22.3 µM; in the experiment on T-47D breast it was 6.83 µM; in the experiment with UACC-62 melanoma, 4.42 µM.

In the case of `Cn1c2ccccc2c2c3[nH]c(=O)[nH]c(=O)c3c3c4ccccc4n(C)c3c21`, the GI50 in the experiment with COLO 205 colon was 2.44 µM; with M14 melanoma, 2.43 µM; with OVCAR-5 ovarian, 3 µM; in the experiment on RXF 393 renal it was 1.74 µM; with SK-OV-3 ovarian, 1.75 µM; in the experiment with SNB-19 CNS it was 3.8 µM. The GI50 with SW-620 colon is 2.67 µM; in the experiment with T-47D breast, 2.05 µM; in the experiment with UACC-62 melanoma, 6.64 µM. Also, the TGI in the experiment with COLO 205 colon was above 100 µM; in the experiment with M14 melanoma, above 100 µM; with OVCAR-5 ovarian, above 100 µM; in the experiment with RXF 393 renal, 5.25 µM; with SK-OV-3 ovarian it was 5.79 µM; in the experiment on SNB-19 CNS, 21.4 µM. In addition, the TGI in the experiment with SW-620 colon was above 100 µM; with T-47D breast it was 27.1 µM; in the experiment on UACC-62 melanoma, above 100 µM.

Consider `N#CCC(=O)NC1C2CC3CC(C2)CC1C3` (stereo not drawn), for which the TGI is 34 µM with COLO 205 colon; 41.6 µM with M14 melanoma; above 100 µM in the experiment on MOLT-4 leukemia; 36.9 µM with OVCAR-5 ovarian; 30.2 µM in the experiment on RXF 393 renal; 78.6 µM in the experiment with SK-OV-3 ovarian. In addition, the TGI with SNB-19 CNS stood at 32.5 µM; in the experiment on SW-620 colon, 51.7 µM; in the experiment on UACC-62 melanoma, 28.7 µM.

Turning to `COc1ccc(-n2cc(-c3cc(OC)c(OC)c(OC)c3)[nH]c2=O)cc1Cl`, the GI50 is above 100 µM with COLO 205 colon; above 100 µM in the experiment with M14 melanoma; above 100 µM with MOLT-4 leukemia; above 100 µM with OVCAR-5 ovarian; 31.8 µM in the experiment with SK-OV-3 ovarian; 42.6 µM in the experiment with SNB-19 CNS. Further, the GI50 in the experiment on SW-620 colon was above 100 µM; in the experiment on T-47D breast, above 100 µM; with UACC-62 melanoma, 51.1 µM. Moreover, the TGI with COLO 205 colon, with M14 melanoma, in the experiment on MOLT-4 leukemia, in the experiment on OVCAR-5 ovarian, in the experiment on SK-OV-3 ovarian and in the experiment on SNB-19 CNS was above 100 µM in each case. In addition, the TGI in the experiment on SW-620 colon, in the experiment on T-47D breast and in the experiment on UACC-62 melanoma was above 100 µM in each case.
